One data set addresses T1, rat APJ receptor (Rattus norvegicus, UniProt Q9JHG3).
T1 construct: expressed in transfected cells
T1 sequence (Q9JHG3 1-377): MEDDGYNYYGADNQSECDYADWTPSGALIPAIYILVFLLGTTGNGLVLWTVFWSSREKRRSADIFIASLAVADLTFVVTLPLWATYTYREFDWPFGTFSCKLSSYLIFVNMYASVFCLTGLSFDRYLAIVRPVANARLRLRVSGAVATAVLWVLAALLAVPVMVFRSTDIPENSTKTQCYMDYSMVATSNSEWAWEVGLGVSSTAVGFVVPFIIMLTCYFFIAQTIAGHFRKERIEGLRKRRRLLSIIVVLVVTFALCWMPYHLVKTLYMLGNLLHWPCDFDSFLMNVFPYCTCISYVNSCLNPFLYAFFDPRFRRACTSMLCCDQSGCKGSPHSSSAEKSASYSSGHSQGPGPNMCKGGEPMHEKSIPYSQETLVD
Kind of data set: [35S] GTPγS assay, rat APJ receptor. It is filed as biochemical. The method, then:
The membranes were incubated with modified peptides in the assay buffer. […] Bound [^35S] GTPγS was separated from free radiolabel by filtration. The filter bound radioactivity was determined by liquid scintillation counting.

The next data set deals with T2, human APJ receptor (Homo sapiens, UniProt P35414).
T2 construct: expressed in transfected cells
T2 sequence (P35414 1-380): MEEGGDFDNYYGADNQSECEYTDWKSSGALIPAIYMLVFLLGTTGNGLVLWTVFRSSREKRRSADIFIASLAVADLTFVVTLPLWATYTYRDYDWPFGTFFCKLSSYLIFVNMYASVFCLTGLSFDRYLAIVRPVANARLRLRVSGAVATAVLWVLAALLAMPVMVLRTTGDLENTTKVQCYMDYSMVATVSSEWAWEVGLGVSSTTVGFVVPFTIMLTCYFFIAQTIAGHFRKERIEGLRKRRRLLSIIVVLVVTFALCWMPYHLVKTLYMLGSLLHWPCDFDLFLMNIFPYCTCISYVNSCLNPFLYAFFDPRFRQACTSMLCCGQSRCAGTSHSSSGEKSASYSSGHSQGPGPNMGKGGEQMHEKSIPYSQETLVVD
As to the kind of experiment: [35S] GTPγS assay, human APJ receptor. Format: biochemical. (In general: Binding of GTPγS marks nucleotide exchange on a G protein.)

Data set [1] in a line: In vitro stability in rat plasma. It is filed as in vitro ADME. The method, boiled down:
(§1)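 Apelin peptides were spiked at 5 μM final into rat plasma, liver homogenate or kidney homogenate and incubated at 37° C. for up to 4 hr. Aliquots were quenched with MeOH containing internal standard, centrifuged, and supernatants analyzed by high resolution LC-MS.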

A short description of data set [2]: In vitro stability in rat liver homogenate. It is filed as in vitro ADME. To be noted: tissue homogenate. Summed up: as §1
The mark [3] stands for this setting: rat APJ receptor, read-out: EC50 Rat APJ Receptor.
The mark [4] stands for this setting: Table 16, read-out: EC50 Rat APJ Receptor.

Each structure is given as a SMILES string. Like-named read-outs stand apart in the source and are kept apart here. Starred links: 1 amine or outer side, 2 acyl side, 3 side chain; linkers in the order of their positions; H or OH if unused. Non-standard residues stand in square brackets, D forms with d. Residues, ends and D or L forms follow the SMILES beside them. *: point of attachment. dBip = N[C@H](Cc1ccc(-c2ccccc2)cc1)C(=O)O; Oic = O=C(O)[C@@H]1C[C@@H]2CCCC[C@@H]2N1; Phe(4-Cl) = N[C@@H](Cc1ccc(Cl)cc1)C(=O)O; dPhe(4-Cl) = N[C@H](Cc1ccc(Cl)cc1)C(=O)O; Phe(4-I) = N[C@@H](Cc1ccc(I)cc1)C(=O)O; γGlu = O=C(O)[C@H](CCC(=O)[*:2])N[*:1]; NMeR = CN[C@@H](CCCNC(=N)N)C(=O)O; Palmitoyl = CCCCCCCCCCCCCCCC(=O)*; Tridecanoyl = CCCCCCCCCCCCC(=O)*; hArg = N=C(N)NCCCC[C@H](N)C(=O)O; Cha = N[C@@H](CC1CCCCC1)C(=O)O; NMeL = CN[C@@H](CC(C)C)C(=O)O; αMeL = CC(C)C[C@](C)(N)C(=O)O; β3hL = CC(C)C[C@H](N)CC(=O)O; αMeP = C[C@@]1(C(=O)O)CCCN1; β3hP = O=C(O)C[C@@H]1CCCN1; Nle = CCCC[C@H](N)C(=O)O; Dap = NC[C@H](N)C(=O)O; AEEA = NCCOCCOCC(=O)O; βAla = NCCC(=O)O

By EC50 is commonly meant the concentration that produces a half-maximal response. With `CCCCCCCCCCCCCCCC(=O)N[C@@H](CCC(=O)NCCOCCOCC(=O)NCCOCCOCC(=O)N[C@H](CCC(N)=O)C(=O)N[C@@H](CCCNC(=N)N)C(=O)N1CCC[C@H]1C(=O)N(C)[C@@H](CCCNC(=N)N)C(=O)N[C@@](C)(CC(C)C)C(=O)N[C@@H](CO)C(=O)N[C@@H](CN)C(=O)N[C@@H](CCCCN)C(=O)NCC(=O)N1[C@H](C(=O)N[C@@H](CCCC)C(=O)N2CCC[C@H]2CC(=O)N[C@@H](Cc2ccc(Cl)cc2)C(=O)O)C[C@@H]2CCCC[C@@H]21)C(=O)O` [compound 630] ({Palmitoyl-γGlu-AEEA-AEEA}-[dQ]RP[NMeR][αMeL]S[Dap]KG[Oic][Nle][β3hP][Phe(4-Cl)]-OH), the EC50 on rat APJ receptor (setting [3]) was 0.486 nM; at human APJ receptor (human APJ receptor) it was 0.203 nM.
Take `CCCCCCCCCCCCC(=O)N[C@@H](CCC(=O)NCCOCCOCC(=O)NCCOCCOCC(=O)N[C@H](CCCNC(=N)N)C(=O)N[C@H](CCC(N)=O)C(=O)N[C@@H](CCCCNC(=N)N)C(=O)N1CCC[C@H]1C(=O)N[C@@H](CCCCNC(=N)N)C(=O)N[C@@H](CC1CCCCC1)C(=O)N[C@@H](CO)C(=O)N[C@@H](Cc1c[nH]cn1)C(=O)N[C@@H](CCCCN)C(=O)NCC(=O)N1[C@H](C(=O)N[C@@H](CCCC)C(=O)N2CCC[C@H]2C(=O)N[C@@H](Cc2ccc(Cl)cc2)C(=O)O)C[C@@H]2CCCC[C@@H]21)C(=O)O` [compound 481] ({Tridecanoyl-γGlu-AEEA-AEEA}-[dR][dQ][hArg]P[hArg][Cha]SHKG[Oic][Nle]P[Phe(4-Cl)]-OH): the EC50 turned out to be 0.341 nM on rat APJ receptor (setting [4]) and 0.177 nM on human APJ receptor (Table 16).
For orientation: fraction remaining means the share of the starting amount still present when the sample was taken. Consider `CCCCCCCCCCCCC(=O)N[C@@H](CCC(=O)NCCOCCOCC(=O)NCCOCCOCC(=O)N[C@@H](CCC(N)=O)C(=O)N[C@@H](CCCNC(=N)N)C(=O)N1CCC[C@H]1C(=O)N(C)[C@@H](CCCCNC(=N)N)C(=O)N[C@@H](CC(C)C)C(=O)N[C@@H](CO)C(=O)N[C@@H](Cc1c[nH]cn1)C(=O)N[C@@H](CCCCN)C(=O)NCC(=O)N1CCC[C@H]1C(=O)N[C@@H](CCCC)C(=O)N1CCC[C@H]1C(=O)N[C@@H](Cc1ccc2ccccc2c1)C(=O)O)C(=O)O` [compound 471], for which, on human APJ receptor (Table 16), the EC50 was determined as 0.0229 nM. Further, the share remaining at 4 h, 5 μM in data set [1] is 52%; in data set [2], below 1%.
Consider `CC(=O)N[C@@H](CCCCNC(=N)N)C(=O)N[C@H](CCCNC(=N)N)C(=O)N[C@@H](CCC(N)=O)C(=O)N[C@@H](CCCCNC(=N)N)C(=O)N1CCC[C@H]1C(=O)N[C@H](CCCNC(=N)N)C(=O)N(C)[C@@H](CC(C)C)C(=O)N[C@@H](CO)C(=O)N[C@@H](Cc1c[nH]cn1)C(=O)N[C@@H](CCCCN)C(=O)NCC(=O)N[C@@H](CCC(=O)O)C(=O)N[C@@H](Cc1ccc(I)cc1)C(=O)N1CCC[C@H]1C(=O)N[C@H](Cc1ccc(-c2ccccc2)cc1)C(=O)O` [compound 85] (Ac-[hArg][dR]Q[hArg]P[dR][NMeL]SHKGE[Phe(4-I)]P[dBip]-OH), for which the EC50 at rat APJ receptor (setting [3]) and on human APJ receptor (human APJ receptor) was above 4170 nM each time.
For `CCCCCCCCCCCCC(=O)N[C@@H](CCC(=O)NCCOCCOCC(=O)NCCOCCOCC(=O)N[C@H](CC(=O)N[C@@H](CCCNC(=N)N)C(=O)N1CCC[C@H]1C(=O)N(C)[C@@H](CCCNC(=N)N)C(=O)N[C@@H](CC(C)C)C(=O)N[C@@H](CO)C(=O)N[C@@H](Cc1c[nH]cn1)C(=O)N[C@@H](CCCCN)C(=O)NCC(=O)N1CCC[C@H]1C(=O)N[C@@H](CCCC)C(=O)N1CCC[C@H]1C(=O)N[C@@H](Cc1ccc(Cl)cc1)C(=O)O)CC(C)C)C(=O)O` [compound 421] ({Tridecanoyl-γGlu-AEEA-AEEA}-[β3hL]RP[NMeR]LSHKGP[Nle]P[Phe(4-Cl)]-OH), the EC50 at rat APJ receptor (setting [3]) came out at 0.286 nM; on human APJ receptor (human APJ receptor), 0.0934 nM.
In the case of `CCCCCCCCCCCCC(=O)N[C@@H](CCC(=O)NCCOCCOCC(=O)NCCOCCOCC(=O)N[C@H](CCC(N)=O)C(=O)N[C@@H](CCCCNC(=N)N)C(=O)N1CCC[C@H]1C(=O)N(C)[C@@H](CCCNC(=N)N)C(=O)N[C@@H](CC1CCCCC1)C(=O)N[C@@H](CO)C(=O)N[C@@H](Cc1c[nH]cn1)C(=O)N[C@@H](CCCCN)C(=O)NCC(=O)N1[C@H](C(=O)N[C@@H](CCCC)C(=O)NCCC(=O)N[C@H](Cc2ccc(Cl)cc2)C(=O)O)C[C@@H]2CCCC[C@@H]21)C(=O)O` [compound 295] ({Tridecanoyl-γGlu-AEEA-AEEA}-[dQ][hArg]P[NMeR][Cha]SHKG[Oic][Nle][βAla][dPhe(4-Cl)]-OH), the EC50 on rat APJ receptor (setting [4]) turned out to be 10.4 nM; on human APJ receptor (Table 16), 3.29 nM.
With `CCCCCCCCCCCCC(=O)N[C@@H](CCC(=O)NCCOCCOCC(=O)NCCOCCOCC(=O)N[C@@H](CCCCNC(=N)N)C(=O)N[C@H](CCCNC(=N)N)C(=O)N[C@@H](CCC(N)=O)C(=O)N[C@@H](CCCCNC(=N)N)C(=O)N1CCC[C@H]1C(=O)N[C@@H](CCCC)C(=O)N(C)[C@@H](CC(C)C)C(=O)N[C@@H](C)C(=O)N[C@@H](C)C(=O)N[C@@H](CCCCN)C(=O)NCC(=O)N1[C@H](C(=O)N[C@@H](Cc2ccc(I)cc2)C(=O)N2CCC[C@H]2C(=O)N[C@H](Cc2ccc(-c3ccccc3)cc2)C(=O)O)C[C@@H]2CCCC[C@@H]21)C(=O)O` [compound 329] ({Tridecanoyl-γGlu-AEEA-AEEA}-[hArg][dR]Q[hArg]P[Nle][NMeL]AAKG[Oic][Phe(4-I)]P[dBip]-OH), the EC50 came out at 36.2 nM at rat APJ receptor (setting [3]) and 37.6 nM on human APJ receptor (human APJ receptor).
As for `CCCCCCCCCCCCC(=O)N[C@@H](CCC(=O)NCCOCCOCC(=O)NCCOCCOCC(=O)N[C@@H](CCC(N)=O)C(=O)N[C@@H](CCCNC(=N)N)C(=O)N1CCC[C@H]1C(=O)N1CCC[C@H]1C(=O)N[C@@H](CC(C)C)C(=O)N[C@@H](CO)C(=O)N[C@@H](Cc1c[nH]cn1)C(=O)N[C@@H](CCCCN)C(=O)NCC(=O)N1CCC[C@H]1C(=O)N[C@@H](CCCC)C(=O)N1CCC[C@H]1C(=O)N[C@@H](Cc1ccc(Cl)cc1)C(=O)O)C(=O)O` [compound 427] ({Tridecanoyl-γGlu-AEEA-AEEA}-QRPPLSHKGP[Nle]P[Phe(4-Cl)]-OH), the values for the EC50 at rat APJ receptor (setting [4]) and at human APJ receptor (Table 16) were 0.313 nM and 0.171 nM, respectively.
`CC(=O)N[C@@H](CCCCNC(=N)N)C(=O)N[C@H](CCCNC(=N)N)C(=O)N[C@@H](CCC(N)=O)C(=O)N[C@@H](CCC(=O)O)C(=O)N1CCC[C@H]1C(=O)N[C@H](CCCNC(=N)N)C(=O)N(C)[C@@H](CC(C)C)C(=O)N[C@@H](CO)C(=O)N[C@@H](Cc1c[nH]cn1)C(=O)N[C@@H](CCCCN)C(=O)NCC(=O)N1[C@H](C(=O)N[C@@H](Cc2ccc(I)cc2)C(=O)N2CCC[C@H]2C(=O)N[C@H](Cc2ccc(-c3ccccc3)cc2)C(=O)O)C[C@@H]2CCCC[C@@H]21` [compound 77] (Ac-[hArg][dR]QEP[dR][NMeL]SHKG[Oic][Phe(4-I)]P[dBip]-OH): the values for the EC50 at rat APJ receptor (setting [3]) and on human APJ receptor (human APJ receptor) were 2.85 nM and 4.92 nM, respectively.
As to `CCCCCCCCCCCCC(=O)N[C@@H](CCC(=O)NCCOCCOCC(=O)NCCOCCOCC(=O)N[C@H](CCC(N)=O)C(=O)N[C@@H](CCCNC(=N)N)C(=O)N1CCC[C@H]1C(=O)N(C)[C@@H](CCCNC(=N)N)C(=O)N[C@@H](CC1CCCCC1)C(=O)N[C@@H](CO)C(=O)N[C@@H](Cc1c[nH]cn1)C(=O)N[C@@H](CCCCN)C(=O)NCC(=O)N1CCC[C@@]1(C)C(=O)N[C@@H](CCCC)C(=O)N[C@@H](Cc1ccc(Cl)cc1)C(=O)O)C(=O)O` [compound 551] ({Tridecanoyl-γGlu-AEEA-AEEA}-[dQ]RP[NMeR][Cha]SHKG[αMeP][Nle][Phe(4-Cl)]-OH), the EC50 was found to be 1.15 nM on rat APJ receptor (setting [4]) and 0.235 nM at human APJ receptor (Table 16).

The values are drawn from patent US11807693B2 (priority 2014, dated 2023).
